Results: paper PMC10611619, “[^99mTc]Tc-PentixaTec: development, extensive pre-clinical evaluation, and first human experience” (European Journal of Nuclear Medicine and Molecular Imaging, 2023)
Read-outs that look alike come from different tables or passages of the source. Each block holds one compound with its values, some of them ahead of it. Where a SMILES comes first, the peptide text is derived from it. Bridges are numbered along the chain shown (N, C = ends). Roman numbers before positions name the chains, in order. Side-chain parts run from the residue outwards. [ ]: non-standard residue; d: D form. The star is where a group is joined. DOTA = O=C(O)CN1CCN(CC(=O)O)CCN(CC(=O)*)CCN(CC(=O)O)CC1; dTyr(3-I) = N[C@H](Cc1ccc(O)c(I)c1)C(=O)O; 2Nal = N[C@@H](Cc1ccc2ccccc2c1)C(=O)O; dNMeOrn = CN[C@H](CCCN)C(=O)O; HYNIC = NNc1ccc(C(=O)*)cn1; 4Amb = NCc1ccc(C(=O)O)cc1; Mercaptoacetyl = O=C(CS)*; 4Abz = Nc1ccc(C(=O)O)cc1; dDap = NC[C@@H](N)C(=O)O

How the values were obtained:
[1] = Lipophilicity (logD), shake-flask n-octanol/PBS pH 7.4; assay type: physicochemical
Experimental: The lipophilicity (logD, partition coefficient between n-octanol and PBS, pH 7.4) of all ^99mTc-labeled compounds in this study was determined using a modified shake-flask method as described.

[2] = in vivo; cited from earlier work
[3] = test system: hCXCR4 expressing Chem-1 cells; assay: Dual tracer internalization studies with [^125I]FC-131 as internal reference; assay type: cell-based, human; settings: for internalization in % of total activity / Internalization (% of reference): 90 min; for Internalization (% of reference): normalized to specific internalization of [^125I]FC-131, Chem-1 cells; for internalization area under the curve (AUC): internalization kinetics, Fig. 1
Experimental: Dual tracer internalization studies using [^125I]FC-131 as internal reference were conducted in hCXCR4 expressing Chem-1 cells in analogy to a previously established protocol. A detailed assay protocol is provided in the supplementary material section.
On the day prior to the experiment, Chem-1 cells were seeded in 24-well-plates at a density of app. 1·10^5 cells per well. On the day of the experiment, the culture medium was removed and the cells were washed once with 250 µL of unsupplemented medium before being left to equilibrate in 200 µL of assay medium (DMEM/F-12 containing 5% BSA) at 37°C for a minimum of 15 min before the experiment. Cells were then coincubated with the respective ^99mTc-labeled compound of interest (0.2 nM) and [^125I]FC-131 (0.2 nM) in the absence (total binding) or presence (non-specific binding) of 100 µM AMD3100 for different time points up to 120 min at 37°C (n=3 wells, respectively, per time point). Incubation was terminated by placing the plate on an ice pack for app. 1 min and by subsequent removal of the incubation medium. Cells were thoroughly rinsed with 250 µL of HBSS. After washing twice with 250 µL of ice cold acid wash buffer (0.02 M NaOAc buffered with AcOH to pH = 5), cells were lysed with 250 µL of 1 N NaOH. The lysate was tranferred to vials and combined with 250 µL of HBSS used for rinsing the wells. Quantification of the amount of free, acid-releasable and internalized ^99mTc- and ^125I-activity was performed using dual isotope protocol on a WIZARD^2® 2480 automatic γ-Counter (Perkin Elmer, Waltham MA, USA).
All data were corrected for non-specific internalization in the presence of […] AMD3100 and were then normalized to the specific internalization observed of the standard radioligand [^125I]FC-131.

[4] = Biodistribution in Jurkat xenograft-bearing mice, 1 h p.i.; assay type: in vivo; settings: female, CB17/SCID, mouse, iv, total radioactivity, n = 5, mean ± SD
Experimental: (§1) Female CB17/SCID mice bearing subcutaneous Jurkat human T cell lymphoma xenografts (for more detailed information, see supplemental material) were injected intravenously with the respective ^99mTc-labeled tracer (5–20 MBq, 0.1–0.2 nmol/mouse) under isofluorane anesthesia and were sacrificed at 1 h post-injection (p.i.). The organs of interest were dissected, and the activity concentration in weighed tissue samples was quantified using a WIZARD^2® 2480 automatic γ-Counter from Perkin Elmer (Waltham MA, USA). Biodistribution data are given in %iD/g and represent means ± SD (groups of n = 4–5 animals). Statistical analysis (t-test) was performed using GraphPad Prism.
(§2) To establish tumor xenografts, Jurkat cells (2 – 3x10^7 cells) were suspended in a mixture of RPMI 1640 medium and Matrigel (1/1; v/v) (BD Biosciences, Heidelberg, Germany), and injected subcutaneously into the right shoulder of 6–10 weeks old CB17-SCID mice from either Charles River GmbH (Sulzfeld, Germany) or the in-house mouse breeding facility. As soon as tumors had grown to a diameter of 5–8 mm (4 – 10 weeks after inoculation), mice were used for the experiments.

[5] = test system: Jurkat xenograft bearing CB17/SCID mice; assay: as above; assay type: in vivo; settings: Jurkat xenograft, n = 5, mean ± SD
Experimental: as §1, §2

[6] = test system: mCXCR4; settings: Eµ-myc 1080 mouse lymphoma cells; cited from earlier work
[7] = biological target: human CXCR4 (hCXCR4) (Homo sapiens, UniProt P61073); assay: Competitive binding to hCXCR4 (IC50), Jurkat cells, [^125I]FC-131 as radioligand; settings: [^125I]FC-131 radioligand
Sequence of human CXCR4 (hCXCR4) (P61073 whole entry): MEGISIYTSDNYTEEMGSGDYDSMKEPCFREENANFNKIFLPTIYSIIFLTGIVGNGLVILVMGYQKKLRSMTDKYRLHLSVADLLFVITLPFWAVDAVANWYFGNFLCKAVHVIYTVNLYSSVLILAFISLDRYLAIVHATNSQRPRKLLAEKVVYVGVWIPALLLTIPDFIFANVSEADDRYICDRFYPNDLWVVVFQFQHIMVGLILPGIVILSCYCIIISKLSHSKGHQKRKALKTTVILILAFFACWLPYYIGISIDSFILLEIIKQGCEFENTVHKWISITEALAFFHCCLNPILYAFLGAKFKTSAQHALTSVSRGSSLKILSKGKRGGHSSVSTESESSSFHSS

- Lipophilicity (logD) [1]: − 1.84
SMILES: CN1C(=O)[C@@H](Cc2ccc(O)cc2)NC(=O)CNC(=O)[C@H](Cc2ccc3ccccc3c2)NC(=O)[C@H](CCCNC(=N)N)NC(=O)[C@H]1CCCNC(=O)c1ccc(NN)nc1 [[^99mTc]Tc-HYNIC-CPCR4, cyclo(D-Tyr-N-Me-D-Orn([^99mTc]Tc-HYNIC)-Arg-2-Nal-G), metal not drawn] (cyclo([2Nal]G[dY][dNMeOrn](HYNIC)R))
- effective dose per unit of administered activity [2]: 3.92E − 03 mSv/MBq

- tissue uptake at 1 h ([4]; blood, read-out: Biodistribution Blood): 1.6 ± 0.6 %ID/g
- tissue uptake at 1 h ([4]; femur, read-out: Biodistribution Femur): 0.8 ± 0.4 %ID/g
- tissue uptake at 1 h ([4]; heart, read-out: Biodistribution Heart): 0.8 ± 0.3 %ID/g
- tissue uptake at 1 h ([4]; intestines, read-out: Biodistribution Intestines): 0.6 ± 0.1 %ID/g
- tissue uptake at 1 h ([4]; kidneys, read-out: Biodistribution Kidneys): 29.5 ± 4.4 %ID/g
- tissue uptake at 1 h ([4]; liver, read-out: Biodistribution Liver): 2.6 ± 0.2 %ID/g
- tissue uptake at 1 h ([4]; lung, read-out: Biodistribution Lung): 1.9 ± 0.4 %ID/g
- tissue uptake at 1 h ([4]; muscle, read-out: Biodistribution Muscle): 1.5 ± 1.1 %ID/g
- tissue uptake at 1 h ([4]; pancreas, read-out: Biodistribution Pancreas): 0.4 ± 0.3 %ID/g
- tissue uptake at 1 h ([4]; spleen, read-out: Biodistribution Spleen): 2.4 ± 1.1 %ID/g
- tissue uptake at 1 h ([4]; stomach, read-out: Biodistribution Stomach): 2 ± 0.7 %ID/g
- Biodistribution Tumor (tumor accumulation) [5]: 8.0 ± 2.2 %iD/g
SMILES: C[C@@H](NC(=O)[C@@H](CCCNC(=N)N)NC(=O)[C@@H](CN)NC(=O)c1ccc(NN)nc1)C(=O)Nc1ccc(C(=O)NCCC[C@@H]2C(=O)N[C@@H](CCCNC(=N)N)C(=O)N[C@@H](Cc3ccc4ccccc4c3)C(=O)NCC(=O)N[C@H](Cc3ccc(O)cc3)C(=O)N2C)cc1 [[^99mTc]Tc-HYNIC-L6-CPCR4, metal not drawn] (cyclo([dY][dNMeOrn]([4Abz-dA-dR-dDap-HYNIC])R[2Nal]G))
- internalization in % of total activity [3]: 77%
- Internalization (% of reference) [3]: 503 (90 min) % of reference
- internalization area under the curve (AUC) [3]: 2370

SMILES: C[C@@H](NC(=O)[C@@H](CCCNC(=N)N)NC(=O)[C@@H](CN)NC(=O)[C@@H](CO)NC(=O)[C@@H](CO)NC(=O)[C@@H](CO)NC(=O)CS)C(=O)Nc1ccc(C(=O)NCCC[C@@H]2C(=O)N[C@@H](CCCNC(=N)N)C(=O)N[C@@H](Cc3ccc4ccccc4c3)C(=O)NCC(=O)N[C@H](Cc3ccc(O)cc3)C(=O)N2C)cc1 [[^99mTc]Tc-mas3-L6-CPCR4, metal not drawn] (I: Mercaptoacetyl-[dS][dS][dS][dDap][dR][dA][4Abz] / II: cyclo([dY][dNMeOrn]R[2Nal]G); amide I:C-II:2)
- internalization in % of total activity [3]: 80%
- Internalization (% of reference) [3]: 525 (90 min) % of reference
- internalization area under the curve (AUC) [3]: 2430
- Biodistribution Tumor (tumor accumulation) [5]: 6.6 ± 1.0 %iD/g

SMILES: CN1C(=O)[C@@H](Cc2ccc(O)c(I)c2)NC(=O)CNC(=O)[C@H](Cc2ccc3ccccc3c2)NC(=O)[C@H](CCCNC(=N)N)NC(=O)[C@H]1CCCNC(=O)c1ccc(CNC(=O)CN2CCN(CC(=O)O)CCN(CC(=O)O)CCN(CC(=O)O)CC2)cc1 [^natLu-PentixaTher, metal not drawn] (cyclo([dTyr(3-I)][dNMeOrn]([4Amb-DOTA])R[2Nal]G); ring closure inferred)
- IC50 [6]: 567 ± 62 nM

SMILES: C[C@@H](NC(=O)[C@@H](CCCNC(=N)N)NC(=O)[C@@H](CN)NC(=O)[C@@H](CO)NC(=O)[C@@H](CO)NC(=O)[C@@H](CO)NC(=O)CS)C(=O)Nc1ccc(C(=O)NCCC[C@@H]2C(=O)N[C@@H](CCCNC(=N)N)C(=O)N[C@@H](Cc3ccc4ccccc4c3)C(=O)NCC(=O)N[C@H](Cc3ccc(O)cc3)C(=O)N2C)cc1 [mas3-L6-CPCR4, mas3-dap-r-a-Abz-CPCR4] (I: Mercaptoacetyl-[dS][dS][dS][dDap][dR][dA][4Abz] / II: cyclo([dY][dNMeOrn]R[2Nal]G); amide I:C-II:2)
- IC50 [7]: 5 ± 1.3 nM
